Where two headings read alike, the source gives them in different places.
Legend:
in vivo = conditions: for Cmax / MRT last / half-life / Tmax: male, Sprague-Dawley, rat, plasma, po; for MRT last: MRT(0-t)
Experimental: An AB SCIEX (USA) Exion LC system consisting of vacuum degasser, binary pump and auto-sampler were used for solvent and sampler delivery. Chromatographic separation was achieved using Agilent Poroshell 120 EC-C18 column (2.1 × 100 mm, 1.9 μm). The column temperature was maintained at 40°C. The mobile phase consisted of 0.1% formic acid-1mM ammonium formate-water solution (A) and acetonitrile (B) was used, and the flow rate was set at 0.3 mL/min. The gradient elution program was as follows: 0–2.0 min (90%–65% A), 2.0–6.0 min (65%–60% A), 6.0–7.0 min (60%–90% A), 7–10 min (90% A). The processed samples were stored at 4°C in an auto sampler. The sample injection volume was 2 μL. An AB SCIEX (USA) Q-TRAP 6500 model mass spectrometer (MS) equipped with a turbolon spray ionization (ESI) source was used for mass analysis and detection. DAPA and the internal standard (IS, i.e., empagliflozin) were analyzed in positive ion mode with multiple reaction monitoring (MRM) pairs: m/z 426.1–355.0 for DAPA and m/z 468.1–355.1 for IS. The ion spray voltage was set at 5500V. The curtain gas, ion source gas 1 and ion source gas 2 were set at 35, 60 and 50 psi, respectively. The source temperature was kept at 200°C. The collision gas was set at low flow rate. The declustering potential and collision energy were 35 V and 19 V for DAPA, 40 V and 21 V for IS.
The rat plasma samples (50 μL), IS working solution (5 μL), 50% methanol (5 μL), and MTBE (500 μL) were mixed, then were vortexed for 3 min and centrifuged for 5 min (4000 rpm, 4°C). The organic phase was transferred to a new centrifuged tube and evaporated to dryness with a stream of nitrogen at room temperature. The dried samples were redissolved with 100 µL of 50% methanol and vortexed for 1 min, then 2 µL of supernatant fluid was injected into the LC-MS/MS instrument for analysis.
Male Sprague Dawley (SD) rats (180–220g, 6–8 weeks old) were provided by Animal Experimentation Centre, School of Pharmacy, Fudan University (Shanghai, China). All the experimental procedures for this study were reviewed and approved by Experimental Animal Ethics Committee of School of Pharmacy, Fudan University, which was in strict compliance with the International Code for the Care and Use of Experimental Animals (approval number:2020-04-LY-MG-01). All the animals were housed under standard laboratory conditions of temperature (25°C ± 2°C), constant humidity (55 ± 5%), and light (12 h dark/light cycle), with freely available food and purified water. After 1 week of acclimation, 12 rats were randomly selected as the healthy group that was fed with the ordinary feed. The remaining 20 rats were modeled for T2DM that were fed with high-fat diet (HFD). After 4 weeks, the modeled rats fed HFD were fasted overnight, and measured fasting blood glucose (FBG), then intraperitoneally injected with STZ (35 mg/kg, inject once). One week later, the FBG was measured again, and only those rats whose FBG were over 16.7 mmol/L were considered to be T2DM rats.
Dose of 1 mg/kg for DAPA used in the study was recommended based on the package insert of DAPA and dose conversion per unit weight from humans to rats (6.3 times). ARE was administered to the rats with the dose of 300 mg/kg, which was selected by converting the recommended doses of AR for adults in practice to the doses of ARE for the rats, according to the Pharmacopoeia of the People’s Republic of China. The healthy rats and T2DM rats were randomly assigned to two groups (n = 6 each group). The CD group was the healthy rats intragastrically administered with DAPA in a single dose (1 mg/kg). The CDA group was the healthy rats intragastrically administered with ARE (300 mg/kg) once a day for seven consecutive days, and intragastrically administered with DAPA (1 mg/kg) at the same time on the seventh day. The MD group was the T2DM rats intragastrically administered with DAPA in a single dose (1 mg/kg).

[1] = for Accuracy (RE, %): rat plasma, n = 6
Experimental: Stability of DAPA in rat plasma was evaluated by analyzing six replicates of QC samples at low and high concentrations under different conditions. Short-term stability was investigated by keeping the samples at room temperature (25°C) for 12 h and autosampler (4°C) for 24 h, respectively. Freeze-thaw stability was investigated by three freeze-thawing cycles, i.e., the samples were frozen for 7 d at -80°C and thawed 3 h at room temperature for each cycle. Long-term stability was investigated by keeping the samples at -80°C for 1 month.

[2] = ref Kasichayanula et al., 2011, cited from earlier work
[3] = ref Kasichayanula et al., 2013, cited from earlier work
P-gp = conditions: ref Obermeier et al., 2010; cited from earlier work
[4] = MD group: T2DM rats, DAPA alone, single intragastric dose 1.05 mg/kg, n = 6, mean ± SD
[5] = MDA group compared to MD group (T2DM rats, with ARE versus DAPA alone)
[6] = MDA group: T2DM rats, ARE 300 mg/kg intragastric once a day for 7 days + DAPA single dose 1.05 mg/kg on day 7, n = 6, mean ± SD
[7] = MDA-H group: T2DM rats, ARE 900 mg/kg once a day for 7 days + DAPA single dose 1.05 mg/kg on day 7, n=6, mean ± SD
[8] = MDA-L group: T2DM rats, ARE 300 mg/kg once a day for 7 days + DAPA single dose 1.05 mg/kg on day 7, n=6, mean ± SD
[9] = T2DM rats compared to healthy rats, DAPA alone

With `CCOc1ccc(Cc2cc([C@@H]3O[C@H](CO)[C@@H](O)[C@H](O)[C@H]3O)ccc2Cl)cc1` [DAPA, Dapagliflozin] the “AUC(0-inf)” value (in vivo; [4]) was 4505.74±148.96 h*(ng/mL), the “AUC(0-t)” value (in vivo; [4]) was 4324.28±185.47 h*(ng/mL) and the CL (in vivo; [4]) was 233.25±7.80 (mL/h)/kg. The V (in vivo; [4]) was 1.49898 ± 0.30743 L/kg, the “decrease of C max” value (in vivo; [5]) was 31.99% and the “decrease of t max” value (in vivo; [5]) was 62.50%. For the same compound, the “increase of V” value (in vivo; [5]) was 2.06 fold, the “increase of t 1/2” value (in vivo; [5]) was 2.18 fold and the “AUC(0-inf)” value (in vivo; [6]) was 4865.13±1307.11 h*(ng/mL). The “AUC(0-t)” value (in vivo; [6]) was 4051.27±952.61 h*(ng/mL), the CL (in vivo; [6]) was 228.25±56.10 (mL/h)/kg and the V (in vivo; [6]) was 3.09173 ± 1.18358 L/kg. For the same compound, the “AUC(0-inf)” value (in vivo; [7]) was 4464.67±408.26 h*(ng/mL), the “AUC(0-t)” value (in vivo; [7]) was 4070.47±408.83 h*(ng/mL) and the CL (in vivo; [7]) was 237.88±21.93 (mL/h)/kg. For the same compound, the V (in vivo; [7]) was 2.55248 ± 0.48245 L/kg, the “AUC(0-inf)” value (in vivo; [8]) was 4560.99±768.53 h*(ng/mL) and the “AUC(0-t)” value (in vivo; [8]) was 3991.37±640.65 h*(ng/mL). The CL (in vivo; [8]) was 235.15±35.35 (mL/h)/kg, the V (in vivo; [8]) was 2.91586 ± 0.51024 L/kg and the “decrease of t max” value (in vivo; [9]) was 29.45%. The “increase of C max” value (in vivo; [9]) was 62.94%, the “difference of AUC(0-t), AUC(0-inf), CL, MRT” value (in vivo; between the MD group and the MDA group (T2DM rats)) was “no significant difference” and the “changes for t 1/2, V, AUC, CL and MRT” value (in vivo; healthy rats versus T2DM rats, DAPA alone) was “no significant changes”. It also gave a Cmax (in vivo; 1.05 mg/kg, C max, MD group: T2DM rats, DAPA alone, single intragastric dose 1.05 mg/kg, n = 6, mean ± SD) of 0.627 ± 0.0686 µg/mL, a Cmax (in vivo; 1.05 mg/kg, Cmax, MDA-H group: T2DM rats, ARE 900 mg/kg once a day for 7 days + DAPA single dose 1.05 mg/kg on day 7, n=6, mean ± SD) of 0.457 ± 0.0504 µg/mL and a Cmax (in vivo; 1.05 mg/kg, Cmax, MDA-L group: T2DM rats, ARE 300 mg/kg once a day for 7 days + DAPA single dose 1.05 mg/kg on day 7, n=6, mean ± SD) of 0.433 ± 0.0626 µg/mL. For the same compound, the MRT last (in vivo; 1.05 mg/kg, MD group: T2DM rats, DAPA alone, single intragastric dose 1.05 mg/kg, n = 6, mean ± SD) was 7.57 ± 0.32 h, the MRT last (in vivo; 1.05 mg/kg, MDA-H group: T2DM rats, ARE 900 mg/kg once a day for 7 days + DAPA single dose 1.05 mg/kg on day 7, n=6, mean ± SD) was 7.23 ± 0.37 h and the MRT last (in vivo; 1.05 mg/kg, MDA-L group: T2DM rats, ARE 300 mg/kg once a day for 7 days + DAPA single dose 1.05 mg/kg on day 7, n=6, mean ± SD) was 7.39 ± 0.34 h. The half-life (in vivo; 1.05 mg/kg, t 1/2, MD group: T2DM rats, DAPA alone, single intragastric dose 1.05 mg/kg, n = 6, mean ± SD) was 4.45 ± 0.9 h, the half-life (in vivo; 1.05 mg/kg, t1/2, MDA-H group: T2DM rats, ARE 900 mg/kg once a day for 7 days + DAPA single dose 1.05 mg/kg on day 7, n=6, mean ± SD) was 7.44 ± 0.86 h and the half-life (in vivo; 1.05 mg/kg, t1/2, MDA-L group: T2DM rats, ARE 300 mg/kg once a day for 7 days + DAPA single dose 1.05 mg/kg on day 7, n=6, mean ± SD) was 8.64 ± 1.08 h. For the same compound, the Tmax (in vivo; 1.05 mg/kg, t max, MD group: T2DM rats, DAPA alone, single intragastric dose 1.05 mg/kg, n = 6, mean ± SD) was 4 h, the Tmax (in vivo; 1.05 mg/kg, tmax, MDA-H group: T2DM rats, ARE 900 mg/kg once a day for 7 days + DAPA single dose 1.05 mg/kg on day 7, n=6, mean ± SD) was 1.45 ± 0.61 h and the Tmax (in vivo; 1.05 mg/kg, tmax, MDA-L group: T2DM rats, ARE 300 mg/kg once a day for 7 days + DAPA single dose 1.05 mg/kg on day 7, n=6, mean ± SD) was 1.25 ± 0.82 h. For the same compound, the Cmax (in vivo; C max, MDA group: T2DM rats, ARE 300 mg/kg intragastric once a day for 7 days + DAPA single dose 1.05 mg/kg on day 7, n = 6, mean ± SD) was 0.427 ± 0.0589 µg/mL, the MRT last (in vivo; [6]) was 7.64 ± 0.7 h and the half-life (in vivo; t 1/2, MDA group: T2DM rats, ARE 300 mg/kg intragastric once a day for 7 days + DAPA single dose 1.05 mg/kg on day 7, n = 6, mean ± SD) was 9.69 ± 3.47 h. The Tmax (in vivo; t max, MDA group: T2DM rats, ARE 300 mg/kg intragastric once a day for 7 days + DAPA single dose 1.05 mg/kg on day 7, n = 6, mean ± SD) was 1.5 ± 0.77 h, the “Accuracy (RE, %)” value ([1]; freeze thaw (3 cycles, 7 d at -80°C, thawed 3 h at room temperature), 33.5 ng/mL) was -4.72% and the “Accuracy (RE, %)” value ([1]; freeze thaw (3 cycles, 7 d at -80°C, thawed 3 h at room temperature), 975 ng/mL) was -3.71%. The “Accuracy (RE, %)” value ([1]; long term (-80°C, 30d), 33.5 ng/mL) was -2.96%, the “Accuracy (RE, %)” value ([1]; long term (-80°C, 30d), 975 ng/mL) was -2.97% and the “Accuracy (RE, %)” value ([1]; refrigerator (4°C, 24 h), 33.5 ng/mL) was -1.37%. The “Accuracy (RE, %)” value ([1]; refrigerator (4°C, 24 h), 975 ng/mL) was -2.63%, the “Accuracy (RE, %)” value ([1]; room temperature (25°C, 12 h), 33.5 ng/mL) was -1.19% and the “Accuracy (RE, %)” value ([1]; room temperature (25°C, 12 h), 975 ng/mL) was -2.87%. The “Stability in the rat plasma” value ([1]; room temperature (25°C) for 12 h, 4°C for 24 h, -80°C for 30 days, three freeze-thaw cycles) was “stable”, the “increase of C max” value ([2]; patients with mild liver function damage versus healthy subjects) was 12% and the “increase of C max” value ([2]; patients with moderate liver function damage versus healthy subjects) was 12%. The “increase of C max” value ([2]; patients with severe liver function damage versus healthy subjects) was 40%, the “increase of C max” value ([3]; T2DM patients with mild renal function damage versus T2DM patient without) was 4% and the “increase of C max” value ([3]; T2DM patients with moderate renal function damage versus T2DM patient without) was 6%. The “increase of C max” value ([3]; T2DM patients with severe renal function damage versus T2DM patient without) was 9% and the P-gp substrate (P-gp) was “substrate of P-gp”.
